Experiments:
cocklebur = experiment: Test B pre-/postemergence herbicide test; format: in vivo, Xanthium strumarium
Procedure, shortened: (§1)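 Plants compared with untreated controls 13–15 days post-treatment and given a visual 0–100 injury score. Applications: preemergence to seeds; postemergence at 1- to 4-leaf (2–18 cm); paddy species flooded, 2-leaf stage. Vehicle non-phytotoxic, surfactant included.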

blackgrass = experiment: Test B postemergence herbicide test; format: in vivo, Alopecurus myosuroides; details: scale 0 (no effect) to 100 (complete control)
Procedure, shortened: (§2)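 Formulated test chemicals went onto postemergence plants measuring 2 to 18 cm, at one to four leaves. For the paddy assay, species had reached two leaves. Scoring took place 13–15 days later by eye, relative to untreated plants, using 0 for no effect up to 100 for full control.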

morningglory = experiment: Test B pre-/postemergence herbicide test; format: in vivo, Ipomoea coccinea
Procedure, shortened: as §1

corn = experiment: Test B pre-/postemergence herbicide test; format: in vivo, Zea mays
Procedure, shortened: (§3)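 Seeds were planted and treated preemergence with compounds formulated in a non-phytotoxic solvent mixture containing surfactant, while plants at the 1- to 4-leaf stage (2 to 18 cm) received postemergence sprays. Flooded paddy plants were grown to the 2-leaf stage. After 13 to 15 days in a greenhouse, injury was visually rated 0–100 against untreated controls.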

Surinam grass = experiment: Test B pre-/postemergence herbicide test; format: in vivo, Urochloa decumbens
Procedure, shortened: as §3

ducksalad [1] = experiment: Test C flooded paddy test; format: in vivo, Heteranthera limosa
wheat = experiment: Test B postemergence herbicide test; format: in vivo, Triticum aestivum; parameters: key to Wheat plant response rating: 0 = no effect, 100 = complete control; details: scale 0 (no effect) to 100 (complete control)
Procedure, shortened: as §2

lambsquarters = experiment: Test B pre-/postemergence herbicide test; format: in vivo, Chenopodium album
Procedure, shortened: as §3

[2] = test system: smallflower umbrella sedge; experiment: Test C flooded paddy test; format: in vivo, Cyperus difformis
barnyardgrass [3] = experiment: Test C flooded paddy test; format: in vivo, Echinochloa crus-galli
Procedure, shortened: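 Greenhouse test with a 12–14 day hold after application and visual comparison with controls. Emerged plants were 1- to 4-leaf stage (2–18 cm) when sprayed postemergence, and the paddy barnyardgrass was at 2 leaves under flooded conditions. 100 = complete control.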

wild oat = experiment: Test B postemergence herbicide test; format: in vivo, Avena fatua; details: scale 0 (no effect) to 100 (complete control)
Procedure, shortened: as §2

ducksalad [4] = experiment: Test B flooded paddy test; format: in vivo, Heteranthera limosa; details: 1000 g ai/ha, visual rating, scale 0 to 100 (0 no effect, 100 complete control), 13 to 15 days
Procedure, shortened: as §2

pigweed = experiment: Test B pre-/postemergence herbicide test; format: in vivo, Amaranthus retroflexus
Procedure, shortened: as §3

large crabgrass = experiment: Test B pre-/postemergence herbicide test; format: in vivo, Digitaria sanguinalis
Procedure, shortened: as §3

[5] = test system: small flower umbrella sedge; experiment: Test B flooded paddy test; format: in vivo, Cyperus difformis; details: 1000 g ai/ha, visual rating, scale 0 to 100 (0 no effect, 100 complete control), 13 to 15 days
Procedure, shortened: as §2

rice [6] = experiment: Test C flooded paddy test; format: in vivo, Oryza sativa
Procedure, shortened: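 Injury scored visually against controls on a 0 (no effect) to 100 (complete control) scale, 12 to 14 days after treatment in greenhouse. Flooded paddy plants treated at 2-leaf stage; postemergence plants at 1- to 4-leaf stage, 2 to 18 cm tall.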

rice [7] = experiment: Test B flooded paddy test; format: in vivo, Oryza sativa; details: 1000 g ai/ha, visual rating, scale 0 to 100 (0 no effect, 100 complete control), 13 to 15 days
Procedure, shortened: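 Visual ratings, 0 (no effect) to 100 (complete control), made versus controls after 13–15 d greenhouse. Paddy plants treated at 2-leaf stage; postemergence plants at 1- to 4-leaf stage, 2–18 cm tall.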

giant foxtail = experiment: Test B pre-/postemergence herbicide test; format: in vivo, Setaria faberi
Procedure, shortened: as §3

velvetleaf = experiment: Test B pre-/postemergence herbicide test; format: in vivo, Abutilon theophrasti
Procedure, shortened: as §3

barnyardgrass [8] = experiment: Test B flooded paddy test; format: in vivo, Echinochloa crus-galli; details: 1000 g ai/ha, visual rating, scale 0 to 100 (0 no effect, 100 complete control), 13 to 15 days
Procedure, shortened: as §2

barnyardgrass [9] = experiment: Test B pre-/postemergence herbicide test; format: in vivo, Echinochloa crus-galli
Procedure, shortened: as §1

rice [10] = experiment: Test B pre-/postemergence herbicide test; format: in vivo, Oryza sativa; details: preemergence, 125 g ai/ha; 0 to 100 scale, 0 is no effect, 100 is complete control
Procedure, shortened: as §3

[11] = Postemergence, 500 g ai/ha, visual rating after 13 to 15 days, scale 0 (no effect) to 100 (complete control)
[12] = Preemergence, 500 g ai/ha, scale 0 to 100
[13] = postemergence, 125 g ai/ha, visual rating, scale 0 (no effect) to 100 (complete control)
[14] = preemergence, 125 g ai/ha, 0 to 100 scale, 0 is no effect, 100 is complete control
[15] = Postemergence, 500 g ai/ha, visual rating after 13 to 15 days
[16] = postemergence, 125 g ai/ha, visual rating
[17] = 62 g ai/ha, scale 0 to 100 (0 no effect, 100 complete control)
[18] = 125 g ai/ha, scale of 0 to 100, 0 is no effect, 100 is complete control
[19] = 250 g ai/ha, scale of 0 to 100, 0 is no effect, 100 is complete control
[20] = 500 g ai/ha, visual rating after 12 to 14 days, scale 0 to 100 (0 no effect, 100 complete control)

## CCn1nc(C(C)(C)C)cc1C(=O)Nc1cc(C(=O)OC)c(OC)cc1F [Compound 75]
cocklebur; [11]
  Plant response rating, Cocklebur: 30
cocklebur; [12]
  Cocklebur plant response rating: 10
cocklebur; [13]
  Cocklebur plant response rating: 10
cocklebur; [14]
  Plant response rating, Cocklebur: 0
blackgrass; [15]
  Plant response rating, Blackgrass: 30
blackgrass; [16]
  Blackgrass plant response rating: 10
morningglory; [11]
  Plant response rating, Morningglory: 50
morningglory; [13]
  Morningglory plant response rating: 20
morningglory; [14]
  Plant response rating, Morningglory: 0
corn; [11]
  Plant response rating, Corn: 20
corn; [12]
  Corn plant response rating: 30
corn; [13]
  Corn plant response rating: 10
corn; [14]
  Plant response rating, Corn: 0
Surinam grass; [11]
  Plant response rating, Surinam Grass: 20
Surinam grass; [13]
  Surinam Grass plant response rating: 10
Surinam grass; [14]
  Plant response rating, Surinam Grass: 30
Ducksalad [1]; [17]
  Ducksalad plant response rating: 0
Ducksalad [1]; [18]
  Ducksalad plant response rating: 30
Ducksalad [1]; [19]
  Ducksalad plant response rating: 65
Ducksalad [1]; [20]
  Plant response rating, Ducksalad: 70
wheat; [15]
  Plant response rating, Wheat: 20
wheat; [16]
  Wheat plant response rating: 10
lambsquarters; [11]
  Plant response rating, Lambsquarters: 40
lambsquarters; [13]
  Lambsquarters plant response rating: 40
lambsquarters; [14]
  Plant response rating, Lambsquarters: 20
[2]; [17]
  Sedge, Umbrella plant response rating: 70
[2]; [18]
  Sedge, Umbrella plant response rating: 75
[2]; [19]
  Sedge, Umbrella plant response rating: 80
[2]; [20]
  Plant response rating, Sedge, Umbrella: 85
Barnyardgrass [3]; [17]
  Barnyardgrass plant response rating: 0
Barnyardgrass [3]; [18]
  Barnyardgrass plant response rating: 25
Barnyardgrass [3]; [19]
  Barnyardgrass plant response rating: 65
Barnyardgrass [3]; [20]
  Plant response rating, Barnyardgrass: 70
Wild oat; [15]
  Plant response rating, Oat, Wild: 40
Wild oat; [16]
  Oat, Wild plant response rating: 10
Ducksalad [4]
  Ducksalad plant response rating: 90
pigweed; [11]
  Plant response rating, Pigweed: 70
pigweed; [13]
  Pigweed plant response rating: 50
pigweed; [14]
  Plant response rating, Pigweed: 50
Large crabgrass; [11]
  Plant response rating, Crabgrass, Large: 10
Large crabgrass; [12]
  Crabgrass, Large plant response rating: 70
Large crabgrass; [13]
  Crabgrass, Large plant response rating: 10
Large crabgrass; [14]
  Plant response rating, Crabgrass, Large: 10
[5]
  Sedge, Umbrella plant response rating: 70
Rice [6]; [17]
  Rice plant response rating: 0
Rice [6]; [18]
  Rice plant response rating: 25
Rice [6]; [19]
  Rice plant response rating: 55
Rice [6]; [20]
  Plant response rating, Rice: 65
Rice [7]
  Rice plant response rating: 90
Giant foxtail; [11]
  Plant response rating, Foxtail, Giant: 20
Giant foxtail; [12]
  Foxtail, Giant plant response rating: 90
Giant foxtail; [13]
  Foxtail, Giant plant response rating: 20
Giant foxtail; [14]
  Plant response rating, Foxtail, Giant: 30
velvetleaf; [11]
  Plant response rating, Velvetleaf: 20
velvetleaf; [13]
  Velvetleaf plant response rating: 20
velvetleaf; [14]
  Plant response rating, Velvetleaf: 20
Barnyardgrass [8]
  Barnyardgrass plant response rating: 80
Barnyardgrass [9]; [11]
  Plant response rating, Barnyardgrass: 20
Barnyardgrass [9]; [12]
  Barnyardgrass plant response rating: 90
Barnyardgrass [9]; [13]
  Barnyardgrass plant response rating: 10
Barnyardgrass [9]; [14]
  Plant response rating, Barnyardgrass: 50
Rice [10]
  Plant response rating, Rice: 40

Reference: patent US20060069132A1, “Azolecarboxamide herbicides” (priority 2004, published 2006)
